Consider 31 compounds from US9662327B2 (AGIOS PHARMACEUTICALS, INC, priority 2011, dated 2017).

Chain of IDH1 R132H (O75874 whole entry R132H): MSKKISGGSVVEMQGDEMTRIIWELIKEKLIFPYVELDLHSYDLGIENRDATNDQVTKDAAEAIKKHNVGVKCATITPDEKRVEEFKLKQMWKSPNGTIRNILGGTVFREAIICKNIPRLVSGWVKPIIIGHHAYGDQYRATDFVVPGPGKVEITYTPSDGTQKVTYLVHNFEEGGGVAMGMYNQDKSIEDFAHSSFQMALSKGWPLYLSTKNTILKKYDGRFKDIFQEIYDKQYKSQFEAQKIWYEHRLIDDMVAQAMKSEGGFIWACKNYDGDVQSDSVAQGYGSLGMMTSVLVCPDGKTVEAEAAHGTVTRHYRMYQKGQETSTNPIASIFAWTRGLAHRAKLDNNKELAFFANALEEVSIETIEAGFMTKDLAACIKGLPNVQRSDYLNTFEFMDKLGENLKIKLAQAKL

The first experiment addresses IDH1 R132H (Homo sapiens (Human), UniProt O75874, R132H). Kind of experiment: Assays for IDH1 R132H Inhibitors (NADPH/aKG, resazurin detection). It is filed as biochemical. The following applies: IDH1 R132H enzyme, Table 2; read-out: IDHR132H Activity. On the procedure:
Assays were conducted in a volume of […] assay buffer (150 mM NaCl, 10 mM MgCl2, 20 mM Tris pH 7.5, 0.03% bovine serum albumin) as follows in a standard 384-well plate: To 25 ul of substrate mix (8 uM NADPH, 2 mM aKG), 1 μl of test compound was added in DMSO. […] The reaction was incubated for 50 minutes at room temperature, then 25 μl of detection mix (30 μM resazurin, […]) was added and the mixture further incubated for 5 minutes at room temperature.
(In general: The colour change of resazurin is a common sign of viable cells or microbes.)
For the compound `N#Cc1c(N2CCN(C(=O)c3cccc4[nH]ccc34)CC2)nc(C2CCCCC2)c2c1CCOC2` [Compound 119, 6-(4-(1H-indole-4-carbonyl)piperazin-1-yl)-8-cyclohexyl-3,4-dihydro-1H-pyrano[3,4-c]pyridine-5-carbonitrile], the IC50 fell in the range of 1000 to 10000 nM. Turning to `CC(C)[C@@H]1CN(c2nc(C3CC3)c3c(c2C#N)CC(C)(C)OC3)CCN1C(=O)NC1CC1` [Compound 398, (R)-4-(5-cyano-8-cyclopropyl-3,3-dimethyl-3,4-dihydro-1H-pyrano[3,4-c]pyridin-6-yl)-N-cyclopropyl-2-isopropylpiperazine-1-carboxamide], the IC50 is 1000 to 10000 nM.

For `C[C@@H]1CN(c2nc(C3CCCCC3)c3c(c2C#N)CC(C)(C)OC3)CCN1C(=O)Cc1cccs1` [Compound 153, (R)-8-cyclohexyl-3,3-dimethyl-6-(3-methyl-4-(2-(thiophen-2-yl)acetyl)piperazin-1-yl)-3,4-dihydro-1H-pyrano[3,4-c]pyridine-5-carbonitrile], the IC50 is 1000 to 10000 nM.

With `CC1(C)Cc2c(C#N)c(N3CCN(C(=O)c4ccoc4)[C@@H](c4ccccc4)C3)nc(C3CC3)c2CO1` [Compound 275], the IC50 is 1000 to 10000 nM. Still for that read-out and setting: under `CC1CN(c2nc(C3CC3)c3c(c2C#N)CC(C)(C)OC3)CCN1C(=O)c1ccoc1` (stereo not shown) [Compound 136] stands 1000 to 10000 nM; under `CC(C)[C@@H]1CN(c2nc(C3CC3)c3c(c2C#N)CC(C)(C)OC3)CCN1C(=O)Cn1ccnn1` [Compound 408, (R)-6-(4-(2-(1H-1,2,3-triazol-1-yl)acetyl)-3-isopropylpiperazin-1-yl)-8-cyclopropyl-3,3-dimethyl-3,4-dihydro-1H-pyrano[3,4-c]pyridine-5-carbonitrile], 1000 to 10000 nM. Take `CC(C)c1nc(N2CCN(C(=O)c3c[nH]c4ccccc34)CC2)c(C#N)c2c1COCC2` [Compound 104, 6-(4-(1H-indole-3-carbonyl)piperazin-1-yl)-8-isopropyl-3,4-dihydro-1H-pyrano[3,4-c]pyridine-5-carbonitrile]: the IC50 lay in the range of 1000 to 10000 nM. On to `CC[C@@H]1CN(c2nc(C3CC3)c3c(c2C#N)CC(C)(C)OC3)CCN1C(=O)Cc1cccnc1` [Compound 294], for which the IC50 was in the range of 500 to 1000 nM. Same read-out and setting: the same measure for `COC(=O)CN1CCN(c2nc(C3CC3)c3c(c2C#N)CC(C)(C)OC3)C[C@H]1C(C)C` [Compound 397, (R)-methyl 2-(4-(5-cyano-8-cyclopropyl-3,3-dimethyl-3,4-dihydro-1H-pyrano[3,4-c]pyridin-6-yl)-2-isopropylpiperazin-1-yl)acetate]: 1000 to 10000 nM; for `CC1CN(c2nc(C3CCCCC3)c3c(c2C#N)CCOC3)CCN1C(=O)c1ccco1` (stereo not shown) [Compound 132, 8-cyclohexyl-6-(4-(furan-2-carbonyl)-3-methylpiperazin-1-yl)-3,4-dihydro-1H-pyrano[3,4-c]pyridine-5-carbonitrile]: 1000 to 10000 nM. In the case of `C=CCNC(=O)N1CCN(c2nc(C3CC3)c3c(c2C#N)CC(C)(C)OC3)C[C@H]1C(C)C` [Compound 304, (R)—N-allyl-4-(5-cyano-8-cyclopropyl-3,3-dimethyl-3,4-dihydro-1H-pyrano[3,4-c]pyridin-6-yl)-2-isopropylpiperazine-1-carboxamide], the IC50 was below 500 nM.

`C[C@@H]1CN(c2nc(C3CCCCC3)c3c(c2C#N)CCOC3)CCN1C(=O)c1cccs1` [Compound 241, (R)-8-cyclohexyl-6-(3-methyl-4-(thiophene-2-carbonyl)piperazin-1-yl)-3,4-dihydro-1H-pyrano[3,4-c]pyridine-5-carbonitrile]: the IC50 fell in the range of 1000 to 10000 nM. On the same count and under the same terms, under `CC(C)c1nc(N2CCN(C(=O)c3cccnc3)[C@H](C)C2)c(C#N)c2c1COC(C)(C)C2` [Compound 249, (R)-8-isopropyl-3,3-dimethyl-6-(3-methyl-4-nicotinoylpiperazin-1-yl)-3,4-dihydro-1H-pyrano[3,4-c]pyridine-5-carbonitrile] stands 1000 to 10000 nM. With `CC(C)c1nc(N2CCN(C(=O)c3ccoc3)[C@H](C)C2)c(C#N)c2c1COCC2` [Compound 140, (R)-6-(4-(furan-3-carbonyl)-3-methylpiperazin-1-yl)-8-isopropyl-3,4-dihydro-1H-pyrano[3,4-c]pyridine-5-carbonitrile], the IC50 was 1000 to 10000 nM. Same read-out and setting: the same measure for `N#Cc1c(N2CCN(C(=O)c3ccc4[nH]ccc4c3)CC2)nc(C2CCCCC2)c2c1CCOC2` [Compound 122, 6-(4-(1H-indole-5-carbonyl)piperazin-1-yl)-8-cyclohexyl-3,4-dihydro-1H-pyrano[3,4-c]pyridine-5-carbonitrile]: 1000 to 10000 nM; for `CSCCC(=O)N1CCN(c2nc(C3CCCCC3)c3c(c2C#N)CCOC3)C[C@H]1C` [Compound 264, (R)-8-cyclohexyl-6-(3-methyl-4-(3-(methylthio)propanoyl)piperazin-1-yl)-3,4-dihydro-1H-pyrano[3,4-c]pyridine-5-carbonitrile]: 1000 to 10000 nM; for `CC1(C)Cc2c(C#N)c(N3CCN(C(=O)c4ccoc4)C(C)(C)C3)nc(C3CC3)c2CO1` [Compound 318, 8-cyclopropyl-6-(4-(furan-3-carbonyl)-3,3-dimethylpiperazin-1-yl)-3,3-dimethyl-3,4-dihydro-1H-pyrano[3,4-c]pyridine-5-carbonitrile]: 1000 to 10000 nM. Consider `CCOC(=O)C1CN(c2nc(C3CCCCC3)c3c(c2C#N)CCOC3)CCN1C(=O)OCCOC` (stereo not shown) [Compound 315, 2-ethyl-1-(2-methoxyethyl) 4-(5-cyano-8-cyclohexyl-3,4-dihydro-1H-pyrano[3,4-c]pyridin-6-yl)-piperazine-1,2-dicarboxylate], for which the IC50 was 1000 to 10000 nM.

`C[C@@H]1CN(c2nc(C3CCCCC3)c3c(c2C#N)CCOC3)CCN1C(=O)c1cnn2cccnc12` [Compound 261, (R)-8-cyclohexyl-6-(3-methyl-4-(pyrazolo[1,5-a]pyrimidine-3-carbonyl)piperazin-1-yl)-3,4-dihydro-1H-pyrano[3,4-c]pyridine-5-carbonitrile]: the IC50 lay within 1000 to 10000 nM. On the same count and under the same terms, the same measure for `COc1ccccc1CC(=O)N1CCN(c2nc(C3CCCCC3)c3c(c2C#N)CCOC3)C[C@H]1C` [Compound 224, (R)-8-cyclohexyl-6-(4-(2-(2-methoxyphenyl)acetyl)-3-methylpiperazin-1-yl)-3,4-dihydro-1H-pyrano[3,4-c]pyridine-5-carbonitrile]: 1000 to 10000 nM. For the compound `COc1ccccc1CC(=O)N1CCN(c2nc(C(C)C)c3c(c2C#N)CC(C)(C)OC3)C[C@H]1C(C)C` [Compound 216, (R)-8-isopropyl-6-(3-isopropyl-4-(2-(2-methoxyphenyl)acetyl)piperazin-1-yl)-3,3-dimethyl-3,4-dihydro-1H-pyrano[3,4-c]pyridine-5-carbonitrile], the IC50 was 1000 to 10000 nM. Regarding `Cc1nc2ccccn2c1C(=O)N1CCN(c2nc(C(C)C)c3c(c2C#N)CC(C)(C)OC3)C[C@H]1C` [Compound 220, (R)-8-isopropyl-3,3-dimethyl-6-(3-methyl-4-(2-methylimidazo[1,2-a]pyridine-3-carbonyl)piperazin-1-yl)-3,4-dihydro-1H-pyrano[3,4-c]pyridine-5-carbonitrile], the IC50 is 1000 to 10000 nM. `CC1(C)Cc2c(C#N)c(N3CCN(C(=O)c4ccoc4)[C@H](c4ccccc4)C3)nc(C3CC3)c2CO1` [Compound 274, (R)-8-cyclopropyl-6-(4-(furan-3-carbonyl)-3-phenylpiperazin-1-yl)-3,3-dimethyl-3,4-dihydro-1H-pyrano[3,4-c]pyridine-5-carbonitrile]: the IC50 lay in the range of 1000 to 10000 nM. Same read-out and setting: the same measure for `C[C@@H]1CN(c2nc(C3CCCCC3)c3c(c2C#N)CC(C)(C)OC3)CCN1C(=O)c1ccco1` [Compound 150, (R)-8-cyclohexyl-6-(4-(furan-2-carbonyl)-3-methylpiperazin-1-yl)-3,3-dimethyl-3,4-dihydro-1H-pyrano[3,4-c]pyridine-5-carbonitrile]: 1000 to 10000 nM. The same measure, in the same setting: the same measure for `CCCC(=O)N1CCN(c2nc(C3CC3)c3c(c2C#N)CC(C)(C)OC3)C[C@H]1C(C)C` [Compound 383]: below 500 nM.

Consider `C[C@@H]1CN(c2nc(C3CCCCC3)c3c(c2C#N)CCOC3)CCN1C(=O)Cc1cccnc1` [Compound 260, (R)-8-cyclohexyl-6-(3-methyl-4-(2-(pyridin-3-yl)acetyl)piperazin-1-yl)-3,4-dihydro-1H-pyrano[3,4-c]pyridine-5-carbonitrile], for which the IC50 lay within 1000 to 10000 nM. On to `C[C@@H]1CN(c2nc(C3CCCCC3)c3c(c2C#N)CCOC3)CCN1C(=O)OCc1ccccc1` [Compound 343, (R)-benzyl 4-(5-cyano-8-cyclohexyl-3,4-dihydro-1H-pyrano[3,4-c]pyridin-6-yl)-2-methylpiperazine-1-carboxylate], for which the IC50 is 1000 to 10000 nM.

Take `Cc1oncc1C(=O)N1CCN(c2nc(C3CCCCC3)c3c(c2C#N)CCOC3)C[C@H]1C` [Compound 187, (R)-8-cyclohexyl-6-(3-methyl-4-(5-methylisoxazole-4-carbonyl)piperazin-1-yl)-3,4-dihydro-1H-pyrano[3,4-c]pyridine-5-carbonitrile]: the IC50 was 500 to 1000 nM.

The same experiment, now with this note: IDH1 R132H enzyme, Table 3; read-out: R132H IC50.
Turning to `CCCCNC(=O)C(=O)CCC(=O)N1CCN(c2nc(C3CC3)c3c(c2C#N)CC(C)(C)OC3)C[C@H]1C(C)C` [Compound 467, (R)—N-butyl-5-(4-(5-cyano-8-cyclopropyl-3,3-dimethyl-3,4-dihydro-1H-pyrano[3,4-c]pyridin-6-yl)-2-isopropylpiperazin-1-yl)-2,5-dioxopentanamide], the IC50 is 500 to 1000 nM. Same read-out and setting: the same measure for `COCCC(=O)N1CCN(c2nc(C3CC3)c3c(c2C#N)CC(C)(C)OC3)CC1C(F)F` (stereo not shown) [Compound 464]: 500 to 1000 nM. Consider `CC1CCN(c2nc(C3CC3)c3c(c2C#N)CC(C)(C)OC3)CCN1C(=O)C1CC1` (stereo not shown) [Compound 475, 6-(4-(cyclopropanecarbonyl)-5-methyl-1,4-diazepan-1-yl)-8-cyclopropyl-3,3-dimethyl-3,4-dihydro-1H-pyrano[3,4-c]pyridine-5-carbonitrile], for which the IC50 is 500 to 1000 nM.
